“Also recorded” adds a separate entry of the source.
Experiments:
[1] = system: HCHF diet-induced obese rats; experiment: Diet-induced obesity and metabolic syndrome, high carbohydrate high fat (HCHF) fed rats; format: in vivo, Wistar rat
Procedure: Selective PAR2 antagonist 52 was used to evaluate the therapeutic potential of PAR2 antagonism in regulating adiposity, adipose tissue inflammation and metabolic function in rats fed a diet high in carbohydrates and fats (HCHF). Weekly body weight measurements (0-16 weeks) were recorded for Corn Starch CS (●) and High Carbohydrate High Fat (HCHF) (∘)-fed rats (FIG. 13A), as well as for HCHF (∘) and HCHF+PAR2 antagonist 52 (▴)-treated rats (FIG. 13B). In addition, weekly waist circumference measurements were recorded for CS (●), HCHF (∘), HCHF+PAR2 antagonist 52 (▴)-treated rats (FIG. 13 C). FIG. 13 D illustrates […] body composition measurements in CS (▪), HCHF ( ? ), HCHF+PAR2 antagonist 52 (□)-treated rats.
Relative to rats fed a lean diet containing only corn starch (CS), those receiving the HCHF diet for 16 weeks become obese, gaining 54±4% body weight and 206±43% total fat mass, particularly visceral (abdominal) fat from week 0 to 16 (FIGS. 13A-G). FIG. 13F is an image of the abdominal fat pad at 16 weeks in rat given HCHF diet for 16 weeks, but no treatment. […] The increase in PAR2 expression in adipose tissue (FIG. 14A) and its two component fractions, adipocytes and stromal vascular cell (SVC) fractions (FIG. 14B), were all elevated by HCHF feeding, positively correlating with increased adiposity. Local adipose tissue inflammation was also elevated by HCHF feeding (FIG. 15A-F). Findings indicate that a different endogenous signal—saturated fatty acids such as palmitic acid consumed in a HCHF diet—can prime macrophages to increase their expression of PAR2.
The regulation of metabolic parameters by PAR2 antagonist 52 were measured in diet-induced obese rats including systolic blood pressure measurements in CS (●), HCHF (∘) and HCHF+52 (▴)-treated rats (FIG. 16 A), oral glucose tolerance in CS (●), HCHF (∘) and HCHF+PAR2 antagonist 52 (▴)-treated rats (FIG. 16 B), insulin tolerance in CS (●), HCHF (∘), HCHF+PAR2 antagonist 52 (▴)-treated rats (FIG. 16 C), plasma lipid concentrations in CS, HCHF and HCHF+PAR2 antagonist 52-treated rats (FIG. 16 D and plasma liver enzymes in CS, HCHF and HCHF+52-treated rats (FIG. 16 E, *P<0.05 vs CS; **P<0.05 vs HCHF).
FIGS. 17A-C show representative images (20× magnification) of hepatocyte ultrastructure and fat deposition in CS (A), HCHF (B) and HCHF+PAR2 antagonist 52 (C)-treated rats. […] FIG. 17E illustrates metabolic genes in rat liver of different groups. […] Expression of mRNA in was normalized against 18s rRNA and fold change was calculated relative to CS samples. Error bars are means±SEM; *P<0.05, **P<0.01, ***P<0.001.
Regulation of cardiovascular structure and function by PAR2 antagonist 52 in diet-induced obese rats was also measured (FIG. 18), including diastolic stiffness constant measurements in CS, HCHF, HCHF+ compound 52-treated rats (FIG. 18A) and echocardiographic characterization of cardiac structure in CS, HCHF (at 8 weeks before treatment), HCHF and HCHF+ compound 52-treated rats FIG. 18B. FIGS. 18C and D show echocardiographic characterization of cardiac function in CS, HCHF (at 8 weeks before treatment), HCHF and HCHF+ compound 52-treated rats. FIGS. 18E-G illustrate vascular organ bath responses for noradrenaline (E), sodium nitroprusside (F) and acetylcholine (G) in CS (●), HCHF (∘) and HCHF+[…] (▾)-treated rats. Representative images (40× magnification) of interstitial collagen deposition in the left ventricle of CS(H), HCHF (I) and HCHF+PAR2 antagonist 52 (J)-treated rats. FIGS. 18 K and L are graphical representations of the area of collagen deposition in perivascular (K) and interstitial (L) region of the left ventricle. *P<0.05 vs CS; **P<0.05 vs HCHF.

PAR2 = target: T1, PAR2 (Homo sapiens, UniProt P55085); experiment: PAR2 agonist inhibition (antagonism): intracellular Ca2+ release in HT29 cells; format: cell-based; parameters: endogenous in cells; host or cells: HT29 (human colorectal adenocarcinoma); settings: other ligands; inhibiting Ca2+ release in HT29 cells; 30 min pre-incubation, agonist at EC80
T1 sequence (P55085 26-397): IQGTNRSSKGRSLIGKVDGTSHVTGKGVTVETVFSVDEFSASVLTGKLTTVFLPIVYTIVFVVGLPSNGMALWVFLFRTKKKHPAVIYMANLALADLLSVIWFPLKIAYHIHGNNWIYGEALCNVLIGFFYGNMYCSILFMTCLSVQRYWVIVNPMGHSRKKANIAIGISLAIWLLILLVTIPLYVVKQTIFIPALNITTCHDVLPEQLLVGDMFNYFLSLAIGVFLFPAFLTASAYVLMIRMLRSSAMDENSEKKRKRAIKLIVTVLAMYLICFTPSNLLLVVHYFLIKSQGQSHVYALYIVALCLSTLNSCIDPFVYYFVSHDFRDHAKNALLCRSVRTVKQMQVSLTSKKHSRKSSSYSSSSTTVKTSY
Procedure: Cells are seeded overnight in 96-well black walled, clear bottomed, plate at approximately 2×10^4 to 4×10^5 cells per well. […] The cells are then washed twice with HBSS and transferred to a Polarstar spectrofluorimeter (BMG, Durham N.C.).
The cells are prepared as outlined above then treated with the ‘putative’ antagonist 30 min prior to the addition of either trypsin or a synthetic agonist at a concentration equal to the agonists EC80.
The cells were then treated with 1 μM of the PAR2 agonist 2f-LIGRLO-NH2 (FIG. 2A, n=5) or 100 nM Trypsin (FIG. 2B, n=1). Each data point represents mean±SEM. Net changes in fluorescence were calculated as a percentage relative to the maximum response given 1 μM 2f-LIGRLO-NH2 or 100 nM Trypsin. Changes in fluorescence (% response) were plotted against logarithmic compound concentrations. The half maximal inhibitory concentration (IC50) values were derived from the dose response curve using a nonlinear regression curve in Graphpad Prism v5.

## CC[C@H](C)[C@@H](NC(=O)[C@H](CC1CCCCC1)NC(=O)c1ccno1)C(=O)N1CCC2(C=Cc3ccccc32)CC1 [Compound 52]
[1]; 10 mg/kg/day oral, weeks 8-16
  body weight gain: prevention
  metabolic indicators after 16 weeks of HCHF feeding: attenuated or reversed
  total fat mass: prevention
  visceral (abdominal) fat deposition: prevention
[1]; HCHF rats
  increased steatosis: prevented
[1]; HCHF-fed rats
  M1-specific proinflammatory genes in adipose tissue: drastic decreased
  M2-specific genes (Mcr2, Mgl1, Ym1, Arg1) in adipose tissue: restored or upregulated
  altered Pparg, Ucp2 and Adipoq genes in retroperitoneal adipose tissue: attenuated these changes
  altered gene expression in skeletal muscle and pancreas: attenuated this altered gene expression
  development of diet-induced cardiac fibrosis (collagen deposition): potent inhibitory effect
  insulin tolerance test: improved responsiveness to insulin; also recorded: comparable insulin sensitivity to untreated CS-fed rats
  oral glucose tolerance test: improved glucose tolerance
[1]; suppressed in HCHF-fed rats
  pancreatic genes Glut2 and Beta2: restored; also recorded: normalized
[1]; treated versus untreated HCHF rats
  liver genes Pparg, Srebf1, Ucp2, Ppargc1a, Cpt and Pnpla2: upregulation
[1]; treatment in vivo
  pancreatic genes Iapp, Atf3, Fas and Id-1 upregulated in HCHF rats: attenuated
[1]; treatment weeks 8-16
  elevated triglycerides and systolic blood pressure: except for elevated triglycerides and systolic blood pressure
  increase in PAR2 expression in whole adipose, adipocyte and stromovascular cells: prevented
  metabolic parameters elevated on HCHF diet (glucose and insulin tolerance, plasma lipids, liver enzymes, cardiac structure and function): attenuated
PAR2
  IC50: 1 µM
